Experimental data: PubChem BioAssay AID330 (DTP/NCI, 2004)
Several values for one entry are separate records, joined by “and”; a condition that tells them apart may be missing. Equal values may be shown once. Toxic doses and inconclusive results are not listed.

System: P388 leukemia ip, CD2F1 mice, survival T/C
Test: NCI In Vivo Anticancer Drug Screen. Data for tumor model P388 Leukemia (intraperitoneal) in CD2F1 (CDF1) mice
Details: endpoint: median survival time, higher = longer survival
In short: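 Mice carrying the transplanted tumor received test compound or vehicle. Survival was recorded in each group, and the value is the treated-group measurement divided by that of the vehicle-treated control group.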

[1] = dose: 50.0 mg/kg/injection, schedule: Q01DX005 (ip), vehicle: saline with Tween-80
[2] = dose: 100.0 mg/kg/injection, schedule: Q01DX005 (ip), vehicle: saline with Tween-80
[3] = dose: 200.0 mg/kg/injection, schedule: Q01DX005 (ip), vehicle: saline with Tween-80
[4] = dose: 12.5 mg/kg/injection, schedule: Q01DX005 (ip), vehicle: saline with Tween-80
[5] = dose: 50.0 mg/kg/injection, schedule: Q01DX009 (ip), vehicle: Klucel (hydroxypropylcellulose) (HPC)
[6] = dose: 100.0 mg/kg/injection, schedule: Q01DX009 (ip), vehicle: Klucel (hydroxypropylcellulose) (HPC)
[7] = dose: 200.0 mg/kg/injection, schedule: Q01DX009 (ip), vehicle: Klucel (hydroxypropylcellulose) (HPC)
[8] = dose: 6.25 mg/kg/injection, schedule: Q01DX009 (ip), vehicle: saline
[9] = dose: 60.0 mg/kg/injection, schedule: Q01DX005 (ip), vehicle: saline with Tween-80
[10] = dose: 120.0 mg/kg/injection, schedule: Q01DX005 (ip), vehicle: saline with Tween-80
[11] = dose: 240.0 mg/kg/injection, schedule: Q01DX005 (ip), vehicle: saline with Tween-80
[12] = dose: 2.5 mg/kg/injection, schedule: Q01DX009 (ip), vehicle: Klucel (hydroxypropylcellulose) (HPC)
[13] = dose: 5.0 mg/kg/injection, schedule: Q01DX009 (ip), vehicle: Klucel (hydroxypropylcellulose) (HPC)
[14] = dose: 20.0 mg/kg/injection, schedule: Q01DX009 (ip), vehicle: Klucel (hydroxypropylcellulose) (HPC)
[15] = dose: 12.5 mg/kg/injection, schedule: Q01DX009 (ip), vehicle: saline
[16] = dose: 25.0 mg/kg/injection, schedule: Q01DX009 (ip), vehicle: saline

Cc1cc(N=Nc2ccc(NC(=O)c3ccc(N)cc3)cc2C)ccc1N=Nc1ccc2c(O)c(N=Nc3ccc(S(=O)(=O)O)cc3)c(S(=O)(=O)O)cc2c1
T/C (dose: 12.5 mg/kg/injection, schedule: Q01DX005 (ip), vehicle: saline): 100 % of control | T/C (dose: 25.0 mg/kg/injection, schedule: Q01DX005 (ip), vehicle: saline): 105 % of control | T/C (dose: 50.0 mg/kg/injection, schedule: Q01DX005 (ip), vehicle: saline): 105 % of control and 108 % of control | T/C (dose: 100.0 mg/kg/injection, schedule: Q01DX005 (ip), vehicle: saline): 103 % of control

CCCCC(CC)C(=O)OC(C)CN(CC(C)OC(=O)C(CC)CCCC)C(=O)C(C)OC(=O)C(CC)CCCC (stereo unspecified)
T/C [1]: 103 % of control | T/C [2]: 96 % of control | T/C [3]: 103 % of control

S=C(NNc1nnc(-c2ccccc2)c(-c2ccccc2)n1)Nc1ccccc1
T/C [4]: 106 % of control | T/C (dose: 25.0 mg/kg/injection, schedule: Q01DX005 (ip), vehicle: saline with Tween-80): 97 % of control | T/C [1]: 90 % of control and 93 % of control

O=c1[nH]c2ccccc2[nH]1
T/C [5]: 114 % of control and 98 % of control | T/C (dose: 50.0 mg/kg/injection, schedule: Q01DX009 (ip), vehicle: suspension in saline): 99 % of control and 90 % of control | T/C [6]: 107 % of control and 98 % of control | T/C (dose: 100.0 mg/kg/injection, schedule: Q01DX009 (ip), vehicle: suspension in saline): 100 % of control | T/C [7]: 117 % of control | T/C (dose: 200.0 mg/kg/injection, schedule: Q01DX009 (ip), vehicle: suspension in saline): 101 % of control and 96 % of control | T/C (dose: 400.0 mg/kg/injection, schedule: Q01DX009 (ip), vehicle: suspension in saline): 101 % of control and 88 % of control

N#CC(Br)(C#N)Cc1ccccc1
T/C (dose: 25.0 mg/kg/injection, schedule: Q01DX009 (ip), vehicle: Klucel (hydroxypropylcellulose) (HPC)): 87 % of control | T/C [5]: 100 % of control

COc1ccc2[nH]c3c(C)c4cc[n+](C)cc4c(C)c3c2c1
T/C (dose: 3.13 mg/kg/injection, schedule: Q01DX009 (ip), vehicle: saline): 153 % of control | T/C [8]: 100 % of control

CC(CN=C(CC(=O)c1ccc(Br)cc1)c1ccccc1)N=C(CC(=O)c1ccc(Br)cc1)c1ccccc1 (stereo unspecified)
T/C (dose: 100.0 mg/kg/injection, schedule: Q04DX003 (ip), vehicle: saline with Tween-80): 90 % of control | T/C (dose: 200.0 mg/kg/injection, schedule: Q04DX003 (ip), vehicle: saline with Tween-80): 87 % of control | T/C (dose: 400.0 mg/kg/injection, schedule: Q04DX003 (ip), vehicle: saline with Tween-80): 87 % of control

CC(C)(C)SC(=S)SCC(=O)c1ccc(Cl)cc1
T/C [9]: 99 % of control | T/C [10]: 98 % of control | T/C [11]: 100 % of control

CCCCCCCC(=O)OC(C)C1/C=C/C=C\C(=O)O[C@@H]2C[C@H]3OC4C5OC5(C)CCC4(COC(=O)C4O[C@@]4(C)C(OC(=O)CCCCCCC)CO1)[C@]2(C)[C@]31CO1 (stereo partly specified)
T/C (dose: 1.25 mg/kg/injection, schedule: Q01DX009 (ip), vehicle: Klucel (hydroxypropylcellulose) (HPC)): 102 % of control | T/C [12]: 106 % of control | T/C [13]: 99 % of control and 106 % of control | T/C (dose: 10.0 mg/kg/injection, schedule: Q01DX009 (ip), vehicle: Klucel (hydroxypropylcellulose) (HPC)): 98 % of control and 101 % of control | T/C [14]: 110 % of control | T/C (dose: 40.0 mg/kg/injection, schedule: Q01DX005 (ip), vehicle: Klucel (hydroxypropylcellulose) (HPC)): 90 % of control | T/C (dose: 40.0 mg/kg/injection, schedule: Q01DX009 (ip), vehicle: Klucel (hydroxypropylcellulose) (HPC)): 99 % of control | T/C (dose: 80.0 mg/kg/injection, schedule: Q01DX005 (ip), vehicle: Klucel (hydroxypropylcellulose) (HPC)): 90 % of control | T/C (dose: 150.0 mg/kg/injection, schedule: Q01DX005 (ip), vehicle: Klucel (hydroxypropylcellulose) (HPC)): 91 % of control | T/C (dose: 160.0 mg/kg/injection, schedule: Q01DX005 (ip), vehicle: Klucel (hydroxypropylcellulose) (HPC)): 108 % of control | T/C (dose: 300.0 mg/kg/injection, schedule: Q01DX005 (ip), vehicle: Klucel (hydroxypropylcellulose) (HPC)): 100 % of control

COc1ccc(CCN2C(=O)C(=O)N(c3cccc4c(N5C(=O)C(=O)N(CCc6ccc(OC)c(OC)c6)C5=O)cccc34)C2=O)cc1OC
T/C [5]: 95 % of control | T/C [6]: 93 % of control | T/C [7]: 96 % of control

CN(C)c1ccc(C(=C2C=CC(=[N+](C)C)C=C2)c2ccc(N(C)C)cc2)cc1
T/C (dose: 0.19 mg/kg/injection, schedule: Q01DX009 (ip), vehicle: saline): 108 % of control | T/C (dose: 0.39 mg/kg/injection, schedule: Q01DX009 (ip), vehicle: saline): 123 % of control

CCC1(c2ccccc2)N=C1N(C)C (stereo unspecified)
T/C [8]: 106 % of control and 92 % of control | T/C [15]: 109 % of control and 120 % of control | T/C [16]: 116 % of control and 118 % of control | T/C (dose: 200.0 mg/kg/injection, schedule: Q01DX009 (ip), vehicle: saline): 93 % of control

O=C1NN2CCN=C2c2cnccc21
T/C (dose: 100.0 mg/kg/injection, schedule: Q04DX002 (ip), vehicle: saline): 98 % of control | T/C (dose: 200.0 mg/kg/injection, schedule: Q04DX002 (ip), vehicle: saline): 93 % of control | T/C (dose: 400.0 mg/kg/injection, schedule: Q04DX002 (ip), vehicle: saline): 92 % of control

CC(C)(C)OC(=O)C(N(Cc1ccccc1)Cc1ccccc1)N(Cc1ccccc1)Cc1ccccc1
T/C [9]: 88 % of control | T/C [10]: 88 % of control | T/C [11]: 86 % of control

CCn1c2ccccc2c2cc(N=Nc3cc(CN(C)C)c(O)c4ncccc34)ccc21
T/C [1]: 100 % of control | T/C [2]: 100 % of control | T/C [3]: 100 % of control

c1cc[n+](CC[n+]2ccccn2)nc1
T/C (dose: 12.5 mg/kg/injection, schedule: Q01DX001 (ip), vehicle: saline): 108 % of control and 111 % of control and 95 % of control | T/C (dose: 25.0 mg/kg/injection, schedule: Q01DX001 (ip), vehicle: saline): 100 % of control (2×) and 122 % of control | T/C (dose: 50.0 mg/kg/injection, schedule: Q01DX001 (ip), vehicle: saline): 100 % of control and 101 % of control and 92 % of control

Cn1cccc1/C=N/N1CC(=O)N(c2cccc(C(F)(F)F)c2)CC1=O
T/C (dose: 6.25 mg/kg/injection, schedule: Q01DX005 (ip), vehicle: saline with Tween-80): 98 % of control | T/C [4]: 100 % of control

Cn1c(=O)c2cc3c(cc2c2ccccc21)OCO3
T/C (dose: 25.0 mg/kg/injection, schedule: Q01DX009 (ip), vehicle: other): 90 % of control | T/C (dose: 50.0 mg/kg/injection, schedule: Q01DX009 (ip), vehicle: other): 93 % of control | T/C (dose: 100.0 mg/kg/injection, schedule: Q01DX009 (ip), vehicle: other): 90 % of control | T/C (dose: 200.0 mg/kg/injection, schedule: Q01DX009 (ip), vehicle: other): 90 % of control | T/C (dose: 400.0 mg/kg/injection, schedule: Q01DX009 (ip), vehicle: other): 93 % of control

c1ccc(-c2ccc[n+](C[n+]3cccc(-c4ccccn4)c3)c2)nc1
T/C (dose: 60.0 mg/kg/injection, schedule: Q01DX005 (ip), vehicle: saline): 109 % of control | T/C (dose: 120.0 mg/kg/injection, schedule: Q01DX005 (ip), vehicle: saline): 104 % of control | T/C (dose: 240.0 mg/kg/injection, schedule: Q01DX005 (ip), vehicle: saline): 106 % of control

CCC1CN2CCC3(C(=O)Nc4ccccc43)C2CC1/C(=C/OC)C(=O)OC (stereo unspecified)
T/C [8]: 102 % of control | T/C [15]: 100 % of control | T/C [16]: 102 % of control | T/C (dose: 50.0 mg/kg/injection, schedule: Q01DX009 (ip), vehicle: saline with Tween-80): 100 % of control | T/C (dose: 50.0 mg/kg/injection, schedule: Q01DX009 (ip), vehicle: saline): 103 % of control

O=C(CCN1CC1)Nc1cccc(NC(=O)CCN2CC2)c1
T/C (dose: 1.8 mg/kg/injection, schedule: Q01DX009 (ip), vehicle: Klucel (hydroxypropylcellulose) (HPC)): 176 % of control | T/C [12]: 158 % of control and 169 % of control and 185 % of control | T/C (dose: 3.0 mg/kg/injection, schedule: Q01DX009 (ip), vehicle: Klucel (hydroxypropylcellulose) (HPC)): 174 % of control | T/C [13]: 167 % of control and 191 % of control and 209 % of control | T/C (dose: 6.0 mg/kg/injection, schedule: Q01DX009 (ip), vehicle: Klucel (hydroxypropylcellulose) (HPC)): 186 % of control | T/C (dose: 15.0 mg/kg/injection, schedule: Q01DX009 (ip), vehicle: Klucel (hydroxypropylcellulose) (HPC)): 88 % of control | T/C [14]: 116 % of control
